# Tests used:
# [1] = target: T1, 5-hydroxytryptamine receptor 4 (Homo sapiens, UniProt Q13639); experiment: Intrinsic activity at human 5HT4C receptor expressed in HEK293 cells assessed as accumulation of cAMP by flash plate adenylyl cyclase activation assay relative to serotonin; type: functional, cell-based
# [2] = target: T1, 5-hydroxytryptamine receptor 4; experiment: Agonist activity at human 5HT4C receptor expressed in HEK293 cells assessed as accumulation of cAMP by flash plate adenylyl cyclase activation assay; type: functional, cell-based
# [3] = target: T1, 5-hydroxytryptamine receptor 4; experiment: Displacement of [H]GR-113808 from human 5HT4C receptor expressed in HEK293 cells by liquid scintillation counting; type: cell-based
# Homo sapiens = species: Homo sapiens; experiment: Selectivity ratio of Ki for human 5HT3A receptor to Ki for human 5HT4C receptor
# T1 sequence (Q13639 whole entry): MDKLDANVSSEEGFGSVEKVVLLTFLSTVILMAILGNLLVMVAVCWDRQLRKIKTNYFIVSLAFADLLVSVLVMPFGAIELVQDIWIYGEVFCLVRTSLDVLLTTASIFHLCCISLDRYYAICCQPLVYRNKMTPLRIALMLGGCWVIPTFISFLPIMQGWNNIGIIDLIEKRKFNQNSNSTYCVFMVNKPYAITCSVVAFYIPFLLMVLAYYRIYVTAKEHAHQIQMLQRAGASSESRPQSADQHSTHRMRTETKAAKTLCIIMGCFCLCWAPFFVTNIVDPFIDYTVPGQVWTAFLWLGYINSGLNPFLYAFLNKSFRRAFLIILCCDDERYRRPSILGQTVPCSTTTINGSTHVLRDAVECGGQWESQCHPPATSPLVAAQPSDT
Compound,Intrinsic activity [1] [%],EC50 [2] [nM],Ki [3] [nM],Ratio Ki (Homo sapiens)
CC(C)n1c(=O)c(C(=O)N[C@H]2C[C@H]3CC[C@@H](C2)N3CCN(C)CCc2c[nH]c3ccccc23)cc2ccccc21,92,1.26,39.8,480
CC(C)n1c(=O)c(C(=O)N[C@H]2C[C@H]3CC[C@@H](C2)N3CCCCCN2C(=O)c3ccccc3C2=O)cc2ccccc21,> 100,25.1,15.8,1200
CC(C)n1c(=O)c(C(=O)N[C@H]2C[C@H]3CC[C@@H](C2)N3CCN2C(=O)c3ccccc3C2=O)cc2ccccc21,> 100,79.4,1000,55
CC(C)n1c(=O)c(C(=O)N[C@H]2C[C@H]3CC[C@@H](C2)N3CCN2CCN(S(C)(=O)=O)CC2)cc2ccccc21,> 100,6.31,63.1,450
CC(C)n1c(=O)n(C(=O)NCC2CCNCC2)c2ccccc21,92,15.8,39.8,0.21
CC(C)n1c(=O)c(C(=O)N[C@H]2C[C@H]3CC[C@@H](C2)N3CCCCCCCCO)cc2ccccc21,> 100,15.8,50.1,1100
COc1cc(N)c(Cl)cc1C(=O)NC1CCN(CCCCCCCCN2CCN(S(C)(=O)=O)CC2)CC1,> 100,39.8,15.8,330
CC(C)n1c(=O)c(C(=O)N[C@H]2C[C@H]3CC[C@@H](C2)N3CCCCCCCCS(=O)(=O)O)cc2ccccc21,> 100,20,63.1,230
COc1cc(N)c(Cl)cc1C(=O)NC1CCN(CCCCCCCCO)CC1,> 100,15.8,79.4,29
COc1cc(N)c(Cl)cc1C(=O)NC1CCN(CCCCCCCCN2CCCCC2)CC1,> 100,3.16,3.16,2000
CC(C)n1c(=O)c(C(=O)NCC2CCNCC2)cc2ccccc21,> 100,100,794,1.2
CC(C)n1c(=O)c(C(=O)N[C@H]2C[C@H]3CC[C@@H](C2)N3CCCCCO)cc2ccccc21,> 100,25.1,63.1,460
COc1ccc2[nH]cc(C(=O)NCC3CCNCC3)c2c1,42,6310,3980,1.1
CCN1[C@@H]2CC[C@H]1C[C@@H](NC(=O)c1cc3ccccc3n(C(C)C)c1=O)C2,96,31.6,126,19
COc1cc(N)c(Cl)cc1C(=O)NC1CCN(CCN2CCCCC2)CC1,> 100,100,251,3.9
COc1cc(N)c(Cl)cc1C(=O)NC1CCN(CCCCCN2CCCCC2)CC1,> 100,5.01,10,990
CCN1CCC(NC(=O)c2cc(Cl)c(N)cc2OC)CC1,> 100,79.4,1000,4.2
COc1ccc2[nH]cc(C(=O)NC3CCNCC3)c2c1,0,–,3160,6.7
COc1cc(N)c(Cl)cc1C(=O)NC1CCN(CCCCCN2C(=O)c3ccccc3C2=O)CC1,> 100,5.01,20,120
CC(C)n1c(=O)c(C(=O)N[C@H]2C[C@H]3CC[C@@H](C2)N3CCCCCN2CCCCC2)cc2ccccc21,> 100,1,5.01,8100

Compound,Intrinsic activity [1] [%],EC50 [2] [nM],Ki [3] [nM],Ratio Ki (Homo sapiens)
CC(C)n1c(=O)c(C(=O)N[C@H]2C[C@H]3CC[C@@H](C2)N3CCO)cc2ccccc21,> 100,31.6,126,3.2
CCCCCN1CCC(NC(=O)c2cc(Cl)c(N)cc2OC)CC1,> 100,25.1,100,33
CC(C)n1c(=O)c(C(=O)N[C@H]2C[C@H]3CC[C@@H](C2)N3CCCCCCCCN2C(=O)c3ccccc3C2=O)cc2ccccc21,> 100,50.1,31.6,120
CCCCCN1[C@@H]2CC[C@H]1C[C@@H](NC(=O)c1cc3ccccc3n(C(C)C)c1=O)C2,> 100,39.8,63.1,890
COc1cc(N)c(Cl)cc1C(=O)NC1CCN(CCN2C(=O)c3ccccc3C2=O)CC1,94,631,7940,13
CC(C)n1c(=O)n(C(=O)N[C@H]2C[C@H]3CC[C@@H](C2)N3)c2ccccc21,> 100,15.8,316,0.013
COc1cc(N)c(Cl)cc1C(=O)NC1CCN(CCCCCS(=O)(=O)O)CC1,93,398,6310,0.15
CC(C)n1nc(C(=O)NCC2CCNCC2)c2ccccc21,0,–,7.94,3
CCCCCCCCN1CCC(NC(=O)c2cc(Cl)c(N)cc2OC)CC1,> 100,39.8,79.4,23
CC(C)n1c(=O)c(C(=O)N[C@H]2C[C@H]3CC[C@@H](C2)N3)cc2ccccc21,> 100,12.6,251,0.85
CC(C)n1c(=O)c(C(=O)N[C@H]2C[C@H]3CC[C@@H](C2)N3CCCCCN2CCN(S(C)(=O)=O)CC2)cc2ccccc21,> 100,1.26,15.8,2800
CC(C)n1c(=O)c(C(=O)NC2CCNCC2)cc2ccccc21,> 100,158,3160,0.14
CC(C)n1c(=O)n(C(=O)NC2CCNCC2)c2ccccc21,> 100,316,1580,0.019
CCCCCCCCN1[C@@H]2CC[C@H]1C[C@@H](NC(=O)c1cc3ccccc3n(C(C)C)c1=O)C2,> 100,39.8,63.1,150
COc1cc(N)c(Cl)cc1C(=O)NCCN1CCNCC1,> 100,501,1260,1.1
COc1ccc2[nH]cc(C(=O)NCCN3CCNCC3)c2c1,0,–,316,25
CC(C)n1c(=O)c(C(=O)N[C@H]2C[C@H]3CC[C@@H](C2)N3CCCCCCCCN2CCN(S(C)(=O)=O)CC2)cc2ccccc21,> 100,3.16,15.8,2100
CC(C)n1nc(C(=O)N[C@H]2C[C@H]3CC[C@@H](C2)N3)c2ccccc21,94,39.8,63.1,0.092
COc1cc(N)c(Cl)cc1C(=O)NC1CCNCC1,> 100,398,1580,0.095

# Reference: ChEMBL document CHEMBL1153520, “A multivalent approach to the design and discovery of orally efficacious 5-HT4 receptor agonists” (J Med Chem, 2009)
